According to US9365533B2, “Coumarin derivative” (NIPPON ZOKI PHARMACEUTICAL CO., LTD., priority 2012, dated 2016):

Columns and labels:
[1] = test system: cartilage pieces of bovine metacarpophalangeal joint; experiment: Suppressive action to cartilage destruction: release of sGAG induced by IL-1α from cartilage pieces; assay type: cell-based; details: Bos taurus, 96 h; 25 μmol/L test substance, 2 h pretreatment; human recombinant IL-1α 3 ng/mL; 4 days at 37° C.; read-out: sGAG Releasing Suppressive Rate (%)
Procedure: Evaluation of Suppressive Action to Cartilage Destruction [Release of sGAG Induced by Interleukin-1α (IL-1α)]
(1) Incubation of Cartilage Pieces
Each four cartilage pieces of bovine metacarpophalangeal joint were placed in each well of a 48-well plate and pretreated for 2 hours with a basal medium [D-MEM (Dulbecco's Modified Eagle Medium) containing 2 mmol/L of glutamine, 25 mmol/L of Hepes, 100 μg/mL of streptomycin, 100 IU/mL of penicillin and 5.6 μg/mL of amphotericin B] containing 25 μmol/L of a test substance. Human recombinant IL-1α (3 ng/mL) was added thereto followed by incubating at 37° C. for 4 days in a CO2 incubator set at 5 vol % of CO2. Culture supernatant and cartilage pieces were recovered and stored by freezing until the measurement for each of them.
(2) Measurement of the Amount of sGAG and Calculation of the Suppressive Rate for the Release of sGAG
The recovered cartilage pieces were treated with a papain solution [containing 1 mg/mL of papain, 100 mmol/L of sodium phosphate (pH 6.5), 5 mmol/L of L-cysteine and 5 mmol/L of disodium ethylenediaminetetraacetate (EDTA)] at 65° C. for about 16 hours to solubilize. Amount of sGAG in the resulting extract was measured using an sGAG Alcian Blue Binding Kit (Wieslab AB) which is a quantitative kit to which a Alcian blue staining protocol is applied. sGAG in the culture supernatant after the incubation was measured without subjecting to a papain treatment. Each releasing rate of sGAG was determined by the following formula to calculate the suppressive rate for the release of sGAG. Releasing rate (%) of sGAG={(Total sGAG amount in the culture supernatant)/[(Total sGAG amount in the culture supernatant)+(Total sGAG amount in the cartilage pieces)]}×100 Suppressive rate (%) for release of sGAG={[Releasing rate of sGAG (IL-1α stimulation)−Releasing rate of sGAG (Test substance)]/[Releasing rate of sGAG (IL-1α stimulation)−Releasing rate of sGAG (Non-stimulation)]}×100

HFLS-OA cells = experiment: Suppressive action to TNF-α-induced proliferation of synovial cells (HFLS-OA), BrdU ELISA; assay type: cell-based; details: Synovial cell, 120 h; 200 μmol/L test substance; human recombinant TNF-α 10 ng/mL; 5 days; BrdU incorporation increase by TNF-α = 100%; read-out: Synovial Cell Proliferation Rate (%)
Procedure: Evaluation of Suppressive Action to Cell Proliferation of Synovial Cells (HFLS-OA) Derived from Tissues of Human Osteoarthritis
(1) Incubation of HFLS-OA Cells
HFLS-OA cells were sown onto a 96-well plate so as to make them 10^4 cells/well/100 μL in a D-MEM containing 2 vol % of fetal bovine serum (FBS) and incubated for 24 hours. A test substance (200 μmol/L) and human recombinant TNF-α (10 ng/mL) were added thereto followed by incubating for 5 days.
(2) Measurement of Action to HFLS-OA Cell Proliferation
A kit [Cell Proliferation ELISA, BrdU (colorimetric) (Roche Diagnostics)] was used and measurement was conducted according to the protocol attached to the kit. HFLS-OA cells were incubated for 3 days and 10 μL of 5-bromo-2′-deoxyuridine (BrdU) dissolved in a phosphate buffered saline (PBS) (100 μmol/L, pH 7.4) was added to each well followed by incubating for 48 hours more. After the culture supernatant was removed from each well, 200 μL/well of an immobilization/denaturation solution was added thereto and the mixture was allowed to stand for 30 minutes whereby immobilization of the cells and denaturation of DNA were conducted. After the immobilization/denaturation solution was completely removed, 100 μL of a peroxidase-labeled anti-BrdU antibody solution was added thereto and the mixture was made to react at room temperature for 90 minutes. After washing with PBS, 100 μL of a substrate liquid (tetramethylbenzidine) was added to each well and the absorbance was measured. A cell proliferation rate upon addition of each test substance was calculated where an increase in incorporation of BrdU upon addition of TNF-α was defined as 100% of cell proliferation rate.

Row | SMILES | inhibition at 25 µM [1] [%] | activity at 200 µM (HFLS-OA cells) [%]
1 | O=c1oc2c(OS(=O)(=O)c3cccc([N+](=O)[O-])c3)cccc2cc1NS(=O)(=O)c1cccc(Br)c1 [Compound 54, 3-[(3-Bromophenyl)sulfonylamino]-2-oxochromen-8-yl 3-nitrobenzenesulfonate] | 136 | -44.4
2 | O=c1oc2c(OS(=O)(=O)c3cccc([N+](=O)[O-])c3)cccc2cc1NS(=O)(=O)c1ccc(-c2ccccc2)cc1 [Compound 55, 2-Oxo-3-[(4-phenylphenyl)sulfonylamino]chromen-8-yl 3-nitrobenzenesulfonate] | 117 | -32.2
3 | O=c1oc2c(OS(=O)(=O)c3cccc(C(F)(F)F)c3)cccc2cc1NS(=O)(=O)c1cccc(Br)c1 [Compound 56, 3-[(3-Bromophenyl)sulfonylamino]-2-oxochromen-8-yl 3-(trifluoromethyl)benzenesulfonate] | 133 | -44.4
4 | O=c1oc2c(OS(=O)(=O)c3ccc(C(F)(F)F)cc3)cccc2cc1NS(=O)(=O)c1cccc(C(F)(F)F)c1 [Compound 57, 2-Oxo-3-[[3-(trifluoromethyl)phenyl]sulfonylamino]-chromen-8-yl 4-(trifluoromethyl)benzenesulfonate] | 140 | -50
5 | O=c1oc2c(OS(=O)(=O)c3ccc(C(F)(F)F)cc3)cccc2cc1NS(=O)(=O)c1cccc(Br)c1 [Compound 58, 3-[(3-Bromophenyl)sulfonylamino]-2-oxochromen-8-yl 4-(trifluoromethyl)benzenesulfonate] | 129 | -42.8
6 | O=c1oc2c(OS(=O)(=O)c3cccc(Br)c3)cccc2cc1NS(=O)(=O)c1cccc([N+](=O)[O-])c1 [Compound 59, 3-[(3-Nitrophenyl)sulfonylamino]-2-oxochromen-8-yl 3-bromobenzenesulfonate] | 123 | -32.8
7 | O=c1oc2c(OS(=O)(=O)c3cccc(Br)c3)cccc2cc1NS(=O)(=O)c1cccc(C(F)(F)F)c1 [Compound 60, 2-Oxo-3-[[3-(trifluoromethyl)phenyl]sulfonylamino]-chromen-8-yl 3-bromobenzenesulfonate] | 138 | -44.4
8 | O=c1oc2c(OS(=O)(=O)c3cccc(Br)c3)cccc2cc1NS(=O)(=O)c1ccc(C(F)(F)F)cc1 [Compound 61, 2-Oxo-3-[[4-(trifluoromethyl)phenyl]sulfonylamino]-chromen-8-yl 3-bromobenzenesulfonate] | 140 | -40.6
9 | O=c1oc2c(OS(=O)(=O)c3ccc(-c4ccccc4)cc3)cccc2cc1NS(=O)(=O)c1cccc([N+](=O)[O-])c1 [Compound 62, 3-[(3-Nitrophenyl)sulfonylamino]-2-oxochromen-8-yl 4-phenylbenzenesulfonate] | 140 | -49.2
10 | O=c1oc2c(OS(=O)(=O)c3ccc(-c4ccccc4)cc3)cccc2cc1NS(=O)(=O)c1cccc(C(F)(F)F)c1 [Compound 63, 2-Oxo-3-[[3-(trifluoromethyl)phenyl]sulfonylamino]-chromen-8-yl 4-phenylbenzenesulfonate] | 137 | -47.9
11 | O=c1oc2c(OS(=O)(=O)c3ccc(-c4ccccc4)cc3)cccc2cc1NS(=O)(=O)c1ccc(C(F)(F)F)cc1 [Compound 64, 2-Oxo-3-[[4-(trifluoromethyl)phenyl]sulfonylamino]-chromen-8-yl 4-phenylbenzenesulfonate] | 136 | -45.9
12 | O=c1oc2c(OS(=O)(=O)c3ccc(-c4ccccc4)cc3)cccc2cc1NS(=O)(=O)c1cccc(Br)c1 [Compound 65, 3-[(3-Bromophenyl)sulfonylamino]-2-oxochromen-8-yl 4-phenylbenzenesulfonate] | 115 | -45.9
